Data on 15 molecules can be found in patent US11130780B2, “Inhibitors of growth factor activation enzymes” (Washington University, priority 2015, dated 2021).

For orientation: Ki means the equilibrium dissociation constant of an inhibitor or competing ligand from its target.

Where “and” joins values, the source holds several entries; their conditions need not be identical. Identical values can stand only once. Like-named read-outs stand apart in the source and are kept apart here. Where only a bound is given, the exact number is not on record here.

Format in all cases: biochemical
Experiment [1] concerns the target T1, HGFA (Homo sapiens, UniProt Q04756).
T1 construct: His6 tag (N); seven amino acid spacer and seven amino acid TEV cleavage site (N); Honey Bee melittin signal peptide (N); made in house; host or cells: High 5 insect cells (baculovirus; virus raised in Sf9)
T1 sequence (Q04756 373-655): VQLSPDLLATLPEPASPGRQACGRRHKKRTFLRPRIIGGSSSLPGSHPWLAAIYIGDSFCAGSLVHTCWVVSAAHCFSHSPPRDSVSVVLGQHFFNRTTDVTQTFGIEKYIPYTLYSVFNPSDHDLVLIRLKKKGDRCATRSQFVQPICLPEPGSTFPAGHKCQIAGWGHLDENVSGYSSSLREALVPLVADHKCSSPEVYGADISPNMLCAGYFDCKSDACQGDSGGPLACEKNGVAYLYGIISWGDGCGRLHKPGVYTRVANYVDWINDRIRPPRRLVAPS
As to the kind of experiment: Fluorescent kinetic enzyme inhibitor assay of HGFA. The following applies: Fluorogenic Assay, read-out: HGFA Ki. The text has this: Using primers identified as SEQ ID NO 1, SEQ ID NO 2, and standard PCR protocols, the nucleotide sequence encoding amino acids 373-655 of HGFA was synthesized. This PCR product was cloned into the SfoI-HindIII sites of a modified pFastBac HT baculovirus expression vector (Addgene, Cambridge, Mass.). This vector contains a six amino His tag followed by a seven amino spacer and a seven amino acid TEV cleavage site placed immediately downstream of the Honey Bee melittin signal peptide. Using a modified Bac to Bac Expression System (Life Technologies, Carlsbad, Calif.), recombinant HGFA bacmids were obtained by transforming DH10Bac Escherichia coli cells. To obtain HGFA containing baculovirus, purified bacmids were transfected into Sf9 insect cells. After 5 days in culture at 27° C., media was harvested from transfected Sf9 cells. This media was used to prepare baculovirus infected insect cells (BIICs). These BIIICs were used to infect High 5 insect cells. Four days post infection, media was harvested and recombinant protein prepared as follows. Media was chilled to 4° C. and spun at 4000×g for 20 minutes (all subsequent steps were performed at 4° C. unless noted). Clarified media was passed first through a Whatman GF/B 1 um (#1821-047, GE Healthcare Life Sciences, Piscataway, N.J.) and then a 0.22 um PES membrane (#99955, TPP Techno Plastic Products AG, Trasadingen, Switzerland) and then concentrated using a Pall Centramate tangential flow system and Centramate T-series Cassette (#OS010T12, Pall Corporation, Port Washington, N.Y.). Concentrated media was then buffer exchanged in two steps, five volumes of 50 mM Na-phosphate, 500 mM NaCl, pH 6.2, followed by five volumes of 50 mM Na-phosphate, 500 mM NaCl, pH 7.5. The concentrated and buffered exchanged insect cell media was again filtered as above and made 25 mM imidazole (#1202, Sigma-Aldrich, St. Louis, Mo.) and was mixed with nickel agarose beads (#H-321-25, Gold Biotechnology, Inc., St. Louis Mo.). After mixing this slurry for 12 hours, nickel agarose beads were allowed to settle by gravity and then loaded into a column. Beads were washed with buffer (25 mM Na-phosphate, 500 mM NaCl, 25 mM imidazole, pH 8) and the bound protein eluted using (25 mM Na-phosphate, 500 mM NaCl, 250 mM imidazole, pH 8). Using a Amicon Ultra-4 Centrifugal filters (#UFC801008, Merck Millipore, Ltd., Tullagreen, Ireland), peak protein fractions were concentrated and run over a Superdex-200 10/300 GL column (GE Healthcare Life Sciences, Piscataway, N.J.) in 10 mM Tris, 200 mM NaCl, 0.2 mM EDTA, pH 8. HGFA containing fractions were pooled, concentrated, made 50% glycerol, and stored at minus 20° C. Protein was quantitated using a modified Lowry protein assay (#500-0006, Bio-Rad Laboratories, Hercules, Calif.).
(§1) Inhibitors (11-pt serial dilutions, 0-20 μM final concentration in reaction) were serially diluted in DMSO (2% DMSO final concentration) and then mixed with either recombinant serine protease domain of HGFA [Z. Han, P. K. Harris, D. E. Jones, R. Chugani, T. Kim, M. Agarwal, W. Shen, S. A. Wildman, J. W. Janetka, Acs Med Chem Lett 2014, 5, 1219-1224], matriptase (Charles Craik, UCSF) or hepsin* (#4776-SE-010, R&D Systems, Minneapolis, Minn.) in black 384 well plates (Corning #3575. Corning, N.Y.). […] The final substrate concentrations for all assays were at the Km for the respective enzymes. Changes in fluorescence (excitation at 380 nm and emission at 460 nm) were measured at room temperature over time in a Biotek Synergy 2 plate reader (Winnoski, Vt.). Using GraphPad Prism version 6.04 software program, (GraphPad Software, San Diego, Calif., www.graphpad.com), a four parameter curve fit was used to determine the inhibitor IC50s from a plot of the mean reaction velocity versus the inhibitor concentration. The IC50 values represent the average of three separate experimental determinations.

Experiment [2] has as its target T2, hepsin (Homo sapiens, UniProt P05981).
T2 construct: purchased R&D Systems 4776-SE-010
As to the kind of experiment: Fluorescent kinetic enzyme inhibitor assay of hepsin. To be noted: Fluorogenic Assay, read-out: Hepsin Ki. How it is done:
as §1

A further experiment addresses T3, matriptase (Homo sapiens, UniProt Q9Y5Y6).
T3 construct: Charles Craik, UCSF (obtained from another laboratory)
T3 sequence (Q9Y5Y6 615-855 limits assumed): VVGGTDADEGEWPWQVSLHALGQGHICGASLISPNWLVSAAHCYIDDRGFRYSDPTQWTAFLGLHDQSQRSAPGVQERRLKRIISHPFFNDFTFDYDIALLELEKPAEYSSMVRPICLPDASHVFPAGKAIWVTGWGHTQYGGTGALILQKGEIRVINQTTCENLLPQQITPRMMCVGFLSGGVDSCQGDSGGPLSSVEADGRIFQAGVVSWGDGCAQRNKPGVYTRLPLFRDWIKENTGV
The experiment is described as follows: Fluorescent kinetic enzyme inhibitor assay of matriptase. The following applies: Fluorogenic Assay. The procedure:
as §1

The target in experiment [3] is T2, hepsin. As to the kind of experiment: P4-P2 substrate specificity using HyCoSuL, hepsin. Also on record: concentration or dose not given beside the values. The following applies: HyCoSuL substrate library; for P2 Position % Activity Hepsin: amino acid fixed at P2 position; for P3 Position % Activity Hepsin: amino acid fixed at P3 position; for P4 Position % Activity Hepsin: amino acid fixed at P4 position. How it is done:
(§2) Each of the P4, P3, and P2 sublibraries were screened at the 100 μM concentration with hepsin either HGFA in a 100 μL final volume per well (99 μL of protease in buffer+1 μL of 10 mM substrates mixture). The total time of the assay was 30 minutes, however only linear portions of the progress curve (5-15 minutes) were used for velocity (RFU/s) calculations. Each sublibrary screening was repeated at least 3-times and the average value calculated from each measurement was used to create the substrate specificity matrix—the best recognized amino acid in each position was set to 100%, and other amino acids were adjusted accordingly.
Recombinant human hepsin (10 μg in 20 uL, 4776-SE-010, R&D Systems) was added to the 100 μL of activation buffer (0.1 M Tris, 0.15 M NaCl, 0.01 M CaCl2, 0.05% TRITON-X, pH=8.0) and incubated at 37° C. for 24 hours (hepsin concentration in activation buffer 2 μM). Once activated hepsin was diluted in assay buffer (0.05 M Tris, pH=9.0) to the final concentration of 4 nM and incubated at 37° C. for 15 minutes before added to a substrate.

In experiment [4] the target is T4, HGFA (Homo sapiens, UniProt Q04756).
T4 sequence (Q04756 408-655 limits assumed): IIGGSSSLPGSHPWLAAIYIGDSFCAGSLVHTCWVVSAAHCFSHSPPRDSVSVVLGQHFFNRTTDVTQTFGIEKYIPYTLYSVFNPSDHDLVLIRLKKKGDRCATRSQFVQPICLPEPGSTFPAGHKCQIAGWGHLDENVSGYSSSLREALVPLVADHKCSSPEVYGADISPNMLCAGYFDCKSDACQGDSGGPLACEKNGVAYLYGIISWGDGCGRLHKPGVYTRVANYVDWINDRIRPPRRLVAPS
T4 sequence (Q04756 373-407 partner limits assumed): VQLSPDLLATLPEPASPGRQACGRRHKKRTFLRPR
The experiment is described as follows: P4-P2 substrate specificity using HyCoSuL, HGFA. The following applies: HyCoSuL substrate library; for P2 Position % Activity HGFA: amino acid fixed at P2 position; for P3 Position % Activity HGFA: amino acid fixed at P3 position; for P4 Position % Activity HGFA: amino acid fixed at P4 position. Also noted: P3 Position % Activity HGFA / P2 Position % Activity HGFA: concentration or dose not given beside the values; P4 Position % Activity HGFA: tested at 100 µM. The procedure:
as §2
HFGA enzyme was diluted in the assay buffer (0.15 M NaCl, 0.025 M Tris, 0.005 M CaCl2, pH=8.0) to the final concentration of 10-20 nM (depending of sublibrary) and incubated at 25° C. for 30 minutes before added to a substrate.

T2 sequence (P05981 163-417 limits assumed): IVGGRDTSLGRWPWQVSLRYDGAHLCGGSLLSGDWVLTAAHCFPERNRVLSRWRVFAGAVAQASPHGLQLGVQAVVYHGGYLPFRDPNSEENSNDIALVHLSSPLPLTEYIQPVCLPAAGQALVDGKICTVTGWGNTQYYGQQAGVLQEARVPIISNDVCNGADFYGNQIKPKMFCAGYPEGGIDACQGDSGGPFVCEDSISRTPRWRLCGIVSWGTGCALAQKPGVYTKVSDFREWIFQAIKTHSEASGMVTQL
T2 sequence (P05981 45-162 partner limits assumed): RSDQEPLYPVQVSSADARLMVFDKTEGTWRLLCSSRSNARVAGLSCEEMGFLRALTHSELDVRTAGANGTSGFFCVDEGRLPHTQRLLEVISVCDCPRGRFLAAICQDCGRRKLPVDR

In the case of `N=C(N)NCCC[C@H](NC(=O)[C@H](Cc1ccccc1)NC(=O)[C@H](N)Cc1c[nH]c2ccccc12)C(=O)c1nc2ccc(C(=O)O)cc2s1` [Compound 1-45A1, H-dWFR-kbt-COOH], the inhibition constant Ki at HGFA [1] (Table 6.1) stood at 0.981 µM; on hepsin [2] (Table 6.1), 0.00141 µM.

On to `N=C(N)c1cccc(C[C@H](NS(=O)(=O)c2ccc3ccccc3c2)C(=O)N2CCC(c3ccccc3)CC2)c1` [Compound 16, (S)-3-(2-(Naphthalene-2-sulfonamido)-3-oxo-3-(4-phenylpiperidin-1-yl)propyl)benzimidamide], for which the figures for the inhibitory constant (Ki) on HGFA [1] (Table 9.1), on matriptase (Table 9.1) and at hepsin [2] (Table 9.1) were 10.1 µM, 0.3 µM and 3.28 µM, respectively.

On to `Cc1ccc(S(=O)(=O)N[C@@H](Cc2cccc(C(=N)N)c2)C(=O)N2CCN(C(=O)OCc3ccccc3)CC2)cc1` [Compound 25h, (S)-Benzyl 4-(3-(3-carbamimidoylphenyl)-2-(4-methylphenylsulfonamido)propanoyl)piperazine-1-carboxylate], for which the results for the Ki at HGFA [1] (Table 9.1) and on hepsin [2] (Table 9.1) were more than 50 µM and 2.4 µM, respectively.

For `CC(C)c1cc(C(C)C)c(S(=O)(=O)N[C@@H](Cc2cccc(C(=N)N)c2)C(=O)N2CCN(C(=O)C3CCNCC3)CC2)c(C(C)C)c1` [Compound 26], the Ki at hepsin [2] (Table 9.1) is 8.14 µM and 8.13 µM.

As for `CC(C)C(=O)N1CCN(C(=O)[C@H](Cc2cccc(C(=N)N)c2)NS(=O)(=O)c2ccc3ccccc3c2)CC1` [Compound 29], the inhibitory constant (Ki) at matriptase (Table 9.1) and on hepsin [2] (Table 9.1) was more than 20 µM in each case.

On to `CC(C)CN1CCN(C(=O)[C@H](Cc2cccc(C(=N)N)c2)NS(=O)(=O)c2ccc3ccccc3c2)CC1` [Compound 30], for which the inhibition constant (Ki) at matriptase (Table 9.1) worked out at 12.4 µM; on hepsin [2] (Table 9.1) it was 4.9 µM.

With `N=C(N)c1cccc(C[C@H](NS(=O)(=O)c2ccc3ccccc3c2)C(=O)N2CCN(C(=O)Cc3cccc(O)c3)CC2)c1` [Compound 31], the Ki at matriptase (Table 9.1) was found to be 4.4 µM; on hepsin [2] (Table 9.1) it was 1.7 µM.

In the case of `N=C(N)c1cccc(C[C@H](NS(=O)(=O)c2ccc3ccccc3c2)C(=O)N2CCN(C(=O)Cc3ccc(F)cc3)CC2)c1` [Compound 32], the inhibitory constant (Ki) came out at 2.8 µM at matriptase (Table 9.1) and 1 µM at hepsin [2] (Table 9.1).

Turning to `N=C(N)NCCC[C@H](NC(=O)[C@H](CCC(N)=O)NC(=O)OCC1c2ccccc2-c2ccccc21)C(=O)c1nc2ccccc2s1` [Compound 7185-6, Fmoc-QR-kbt], the inhibition constant Ki at matriptase (Table 6.1) amounted to 0.0016 µM.

In the case of `CCOC(=O)N1CCN(C(=O)[C@H](Cc2cccc(C(=N)N)c2)NS(=O)(=O)c2ccc3ccccc3c2)CC1` [FMF-1-275-004], the inhibitory constant (Ki) on matriptase (Table 9.1) was determined as 2.78 µM; at hepsin [2] (Table 9.1) it was 39.5 µM.

Regarding D-His, at hepsin [3], the “P2 Position % Activity Hepsin” value was 0.00%, the “P3 Position % Activity Hepsin” value is 40.09% and the “P4 Position % Activity Hepsin” value stood at 19.33%. On HGFA [4], the “P2 Position % Activity HGFA” value came out at 0.00%, the “P3 Position % Activity HGFA” value stood at 11.09% and the “P4 Position % Activity HGFA” value stood at 7.79%.

In the case of D-Val, on hepsin [3], the “P2 Position % Activity Hepsin” value is reported as 0.00%, the “P3 Position % Activity Hepsin” value amounted to 27.04% and the “P4 Position % Activity Hepsin” value is 22.58%. Moreover, on HGFA [4], the “P2 Position % Activity HGFA” value stood at 0.00%, the “P3 Position % Activity HGFA” value amounted to 5.76% and the “P4 Position % Activity HGFA” value came out at 8.25%.

As for L-Dab, on hepsin [3], the “P2 Position % Activity Hepsin” value came to 13.49%, the “P3 Position % Activity Hepsin” value is given as 48.55% and the “P4 Position % Activity Hepsin” value was found to be 47.53%. For the same molecule, at HGFA [4], the “P2 Position % Activity HGFA” value amounted to 0.50%, the “P3 Position % Activity HGFA” value is listed as 29.40% and the “P4 Position % Activity HGFA” value worked out at 16.76%.

For L-Pip, on hepsin [3], the “P2 Position % Activity Hepsin” value is 10.66%, the “P3 Position % Activity Hepsin” value worked out at 1.64% and the “P4 Position % Activity Hepsin” value was determined as 34.68%. On HGFA [4], the “P2 Position % Activity HGFA” value turned out to be 1.75%, the “P3 Position % Activity HGFA” value is 0.83% and the “P4 Position % Activity HGFA” value came to 9.25%.

Consider β-Ala, for which, on hepsin [3], the “P2 Position % Activity Hepsin” value was found to be 0.00%, the “P3 Position % Activity Hepsin” value was determined as 22.78% and the “P4 Position % Activity Hepsin” value is on record as 30.74%. On HGFA [4], the “P2 Position % Activity HGFA” value was determined as 0.24%, the “P3 Position % Activity HGFA” value is reported as 15.95% and the “P4 Position % Activity HGFA” value came to 10.07%.
